The subject of this test is alloxan-induced diabetic mice. Put plainly: In vivo anti-diabetic activity in alloxan-induced diabetic mice. The arrangement: species or system albino mice (strain balb/c).

Take `C[C@H]1O[C@H](O[C@H]2[C@H](O)[C@@H](O)[C@@H](O[C@H]3[C@H](O)[C@@H](O)C(O)O[C@@H]3CO)O[C@@H]2CO)[C@H](O)[C@@H](O)[C@@H]1N[C@H]1C=C(CO)[C@@H](O)[C@H](O)[C@H]1O` (some centres unmarked) [Acarbose]: the Creatinine content entry (day 21, compared with diabetic control) is “significant (p < 0.05) decrease in creatinine content”. The “level of insulin in serum” value (day 21, FA2 at high dose) was 25 ± 3.1 pmol/L.

The values above are taken from paper PMC9700480 (Drug Design, Development and Therapy, 2022).
